Measurements published in paper PMC11964917 (Nature Microbiology, 2025).

Key:
[1] = system: influenza A/H5N1 virus; format: cell-based
[2] = system: influenza A/H7N9 virus; format: cell-based
[3] = system: recombinant NA A/H7N9; format: biochemical, influenza A virus

| Compound | EC50 [1] | EC50 [2] | IC50 [3] |
| --- | --- | --- | --- |
| O=C1c2c(O)c(=O)ccn2N([C@@H]2c3ccccc3SCc3c2ccc(F)c3F)[C@@H]2COCCN12 [BXA, baloxavir acid] | < 0.03 nM | < 0.03 nM |  |
| CC(=O)N[C@H]1[C@H]([C@H](O)[C@H](O)CO)OC(C(=O)O)=C[C@@H]1N=C(N)N [ZAN, zanamivir] |  |  | > 100 nM |
